Laboratory results taken from US11866430B2, “Naphthyridinone compounds useful as T cell activators” (priority 2018, dated 2024).
Where two headings read alike, the source gives them in different places.

Legend:
[1] = test system: Jurkat AP1-luciferase Reporter; assay: DGK AP1-Reporter Assay; type: cell-based
Outline: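 Jurkat cells carrying a lentiviral AP1-luciferase reporter received 30 nl compound per well for 20 min at 37 °C and 5% CO2. They were then stimulated for 6 h with anti-CD3 solution at 0.4 μg/mL; reference wells received 4 μg/mL and unstimulated wells medium only. Readout was Steady-Glo luciferase luminescence (RLU).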

human DGKζ = human DGKζ (Homo sapiens (Human), UniProt Q13574); assay: DGKζ LIPGLO assay (extruded liposome substrate); type: biochemical
Outline: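 Sf9-derived DGKζ was premixed 10 min with PC/DAG/PS liposomes (100 nm extruded) in MOPS pH 7.5 buffer containing NaCl, MgCl2, CaCl2 and DTT.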

[2] = read-out: API-Luciferase Reporter IC50, Table 3
[3] = extruded liposome substrate, read-out: DGKζ LIPGLO IC50
[4] = Homo sapiens, Jurkat, read-out: DGKAP1 Lucif Reporter IC50, Table 4
[5] = Homo sapiens, Jurkat, read-out: API-Luciferase Reporter IC50, Table 3

human DGKζ, sequence (Q13574 other isoform, or with tags, fused parts or gaps): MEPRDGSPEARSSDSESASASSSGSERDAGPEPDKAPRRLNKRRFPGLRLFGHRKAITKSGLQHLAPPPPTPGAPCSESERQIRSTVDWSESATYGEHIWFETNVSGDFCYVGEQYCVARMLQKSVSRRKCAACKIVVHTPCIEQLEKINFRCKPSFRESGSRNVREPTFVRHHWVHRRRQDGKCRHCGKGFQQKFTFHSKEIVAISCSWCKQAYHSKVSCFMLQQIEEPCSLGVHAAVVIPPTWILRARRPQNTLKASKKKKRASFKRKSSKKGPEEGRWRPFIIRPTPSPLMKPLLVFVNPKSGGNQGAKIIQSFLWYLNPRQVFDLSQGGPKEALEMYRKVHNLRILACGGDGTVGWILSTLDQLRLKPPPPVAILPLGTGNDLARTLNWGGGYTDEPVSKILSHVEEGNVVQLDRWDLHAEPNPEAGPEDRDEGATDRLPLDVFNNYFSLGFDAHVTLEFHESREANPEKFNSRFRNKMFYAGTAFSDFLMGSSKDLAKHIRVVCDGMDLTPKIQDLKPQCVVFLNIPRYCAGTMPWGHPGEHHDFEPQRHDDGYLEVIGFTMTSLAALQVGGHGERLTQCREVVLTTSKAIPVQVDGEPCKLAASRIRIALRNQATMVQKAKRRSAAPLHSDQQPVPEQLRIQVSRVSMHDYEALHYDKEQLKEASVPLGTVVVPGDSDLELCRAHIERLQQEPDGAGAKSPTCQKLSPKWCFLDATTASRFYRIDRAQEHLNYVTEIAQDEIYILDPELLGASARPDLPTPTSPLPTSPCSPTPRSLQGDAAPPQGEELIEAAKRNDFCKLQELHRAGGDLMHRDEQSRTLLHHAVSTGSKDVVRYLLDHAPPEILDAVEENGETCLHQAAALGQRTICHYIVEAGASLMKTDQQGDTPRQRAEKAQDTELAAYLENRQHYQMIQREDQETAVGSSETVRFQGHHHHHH

Compound	IC50 [1, 2] [nM]	IC50 (human DGKζ; [3]) [nM]	IC50 [1, 4] [nM]	IC50 [1, 5] [nM]	IC50 (human DGKζ; DGKζ LIPGLO IC50, extruded liposome substrate) [nM]
C#CCn1c(=O)c([N+](=O)[O-])c(N2CCN(C(c3ccc(F)cc3)c3ccc(F)cc3O)CC2)c2nc(C#N)ccc21 (single isomer, unassigned) [Example 121, 8-(4-((4-fluoro-2-hydroxyphenyl)(4-fluorophenyl)methyl)piperazin-1-yl)-7-nitro-6-oxo-5-(prop-2-yn-1-yl)-5,6-dihydro-1,5-naphthyridine-2-carbonitrile]	340	55	–	–	–
Cn1c(=O)c(C#N)c(N2CCN(C(C)(C)c3ccc(F)cc3)CC2)c2nc(Cl)ccc21 [Example 425, 6-chloro-4-{4-[2-(4-fluorophenyl)propan-2-yl]piperazin-1-yl}-1-methyl-2-oxo-1,2-dihydro-1,5-naphthyridine-3-carbonitrile]	–	> 240000	–	–	–
Cc1ccc2c(n1)c(N1CCN(C(C)c3ccc(F)cc3)CC1)c(Br)c(=O)n2C (centres unmarked) [Example 224, 3-bromo-4-(4-(1-(4-fluorophenyl)ethyl)piperazin-1-yl)-1,6-dimethyl-1,5-naphthyridin-2(1H)-one]	–	20000	10000	–	–
Cc1ccc2c(n1)c(N1CCN(Cc3cccc(Cl)c3O)CC1)c(C#N)c(=O)n2C [Example 389, 4-{4-[(3-chloro-2-hydroxyphenyl)methyl]piperazin-1-yl}-1,6-dimethyl-2-oxo-1,2-dihydro-1,5-naphthyridine-3-carbonitrile]	–	9400	–	650	–
CC(c1ccc(F)cc1)N1CCN(c2c([N+](=O)[O-])c(=O)n(C)c3ccc(C#N)nc23)CC1 (single isomer, unassigned) [Example 44, 8-(4-(1-(4-fluorophenyl)ethyl)piperazin-1-yl)-5-methyl-7-nitro-6-oxo-5,6-dihydro-1,5-naphthyridine-2-carbonitrile]	–	1300	–	350	–
C#CCn1c(=O)c([N+](=O)[O-])c(N2CCN(C(C)c3ccc(F)cc3)CC2)c2nc(C#N)ccc21 (single isomer, unassigned) [Example 137, 8-(4-(1-(4-fluorophenyl)ethyl)piperazin-1-yl)-7-nitro-6-oxo-5-(prop-2-yn-1-yl)-5,6-dihydro-1,5-naphthyridine-2-carbonitrile]	190	–	–	–	850
C#CCn1c(=O)c([N+](=O)[O-])c(N2CCN(C(CC)c3ccc(F)cc3)CC2)c2nc(C#N)ccc21 (single isomer, unassigned) [Example 141, 8-{4-[1-(4-fluorophenyl)propyl]piperazin-1-yl}-7-nitro-6-oxo-5-(prop-2-yn-1-yl)-5,6-dihydro-1,5-naphthyridine-2-carbonitrile]	–	1400	–	240	–
CCCCn1c(=O)c([N+](=O)[O-])c(N2CCN(C(c3ccccc3)c3ccccc3)CC2)c2ncccc21 [Example 177, 4-(4-benzhydrylpiperazin-1-yl)-1-butyl-3-nitro-1,5-naphthyridin-2(1H)-one]	–	9700	10000	–	–
Cn1c(=O)c([N+](=O)[O-])c(N2CCN(CC(O)c3ccc(F)cc3)CC2)c2nc(C#N)ccc21 (centres unmarked) [Example 36, 8-{4-[2-(4-fluorophenyl)-2-hydroxyethyl]piperazin-1-yl}-5-methyl-7-nitro-6-oxo-5,6-dihydro-1,5-naphthyridine-2-carbonitrile]	–	18000	–	1600	–
COc1cc(F)ccc1C(c1ccc(F)cc1)N1CCN(c2c(C#N)c(=O)n(C)c3ccc(C#N)nc23)CC1 (single isomer, unassigned) [Example 406, 8-{4-[(4-fluoro-2-methoxyphenyl)(4-fluorophenyl)methyl]piperazin-1-yl}-5-methy-6-oxo-5,6-dihydro-L5-naphthyridine-2,7-dicarbonitrile]	–	3100	–	–	–
COc1cc(C#N)ccc1CN1CCN(c2c(C#N)c(=O)n(C)c3ccc(Cl)nc23)CC1 [Example 424, 6-chloro-4-{4-[(4-cyano-2-methoxyphenyl)methyl]piperazin-1-yl}-1-methyl-2-oxo-1,2-dihydro-1,5-naphthyridine-3-carbonitrile]	–	27000	–	10000	–
Cc1ccc(CN2CCN(c3c(C#N)c(=O)n(C)c4ccc(Cl)nc34)CC2)cc1 [Example 386, 6-chloro-1-methyl-4-{4-[(4-methylphenyl)methyl]piperazin-1-yl}-2-oxo-1,2-dihydro-1,5-naphthyridine-3-carbonitrile]	–	6700	–	50	–
Cn1c(=O)c([N+](=O)[O-])c(N2CCN(Cc3cccc4ccccc34)CC2)c2nc(C#N)ccc21 [Example 415, 5-methyl-8-{4-[(naphthalen-1-yl)methyl]piperazin-1-yl}-7-nitro-6-oxo-5,6-dihydro-1,5-naphthyridine-2-carbonitrile]	–	660	420	–	–
Cc1ccc(CN2CCN(c3c(C#N)c(=O)n(C)c4ccc(Cl)nc34)CC2)c(F)c1 [Example 423, 6-chloro-4-{4-[(2-fluoro-4-methylphenyl)methyl]piperazin-1-yl}-1-methyl-2-oxo-1,2-dihydro-1,5-naphthyridine-3-carbonitrile]	–	33000	–	1880	–
COc1cc(F)ccc1C(c1ccc(F)cc1)N1CCN(c2c(C#N)c(=O)n(C)c3ccc(Br)nc23)CC1 (single isomer, unassigned) [Example 17, 6-bromo-4-{4-[(4-fluoro-2-methoxyphenyl)(4-fluorophenyl)methyl]piperazin-1-yl}-1-methyl-2-oxo-1,2-dihydro-1,5-naphthyridine-3-carbonitrile]	–	9400	1330	350	–
C#CCn1c(=O)c([N+](=O)[O-])c(N2CCN(C(c3ccc(F)cc3)C3CC3)CC2)c2nc(C#N)ccc21 (single isomer, unassigned) [Example 143, 8-(4-(cyclopropyl(4-fluorophenyl)methyl)piperazin-1-yl)-7-nitro-6-oxo-5-(prop-2-yn-1-yl)-5,6-dihydro-1,5-naphthyridine-2-carbonitrile]	–	1100	1280	–	–
COc1cc(F)ccc1C(c1ccc(F)cc1)N1CCN(c2c(C#N)c(=O)n(C)c3ccc(C#N)nc23)CC1 (single isomer, unassigned) [Example 407, 8-{4-[(4-fluoro-2-methoxyphenyl)(4-fluorophenyl)methyl]piperazin-1-yl}-5-methy-6-oxo-5,6-dihydro-L5-naphthyridine-2,7-dicarbonitrile]	–	450	–	–	–
Cn1c(=O)c(C#N)c(N2CCN(Cc3cccc4ccccc34)CC2)c2nc(C#N)ccc21 [Example 404, 5-methyl-8-{4-[(naphthalen-1-yl)methyl]piperazin-1-yl}-6-oxo-5,6-dihydro-1,5-naphthyridine-2,7-dicarbonitrile]	–	3900	–	–	–
COc1ccccc1C(c1ccc(F)cc1)N1CCN(c2c(C#N)c(=O)n(C)c3ccc(Br)nc23)CC1 (single isomer, unassigned) [Example 13, 6-bromo-4-{4-[(4-fluorophenyl)(2-methoxyphenyl)methyl]piperazin-1-yl}-1-methyl-2-oxo-1,2-dihydro-1,5-naphthyridine-3-carbonitrile]	–	–	–	1300	–
COc1ccc2c(n1)c(N1CCN(C(c3ccc(F)cc3)c3ccc(F)cc3OC)CC1)c(C#N)c(=O)n2C (racemic) [Example 412, 4-{4-[(4-fluoro-2-methoxyphenyl)(4-fluorophenyl)methyl]piperazin-1-yl}-6-methoxy-1-methyl-2-oxo-1,2-dihydro-1,5-naphthyridine-3-carbonitrile]	–	600	–	–	–
